Source: patent US20260306500A1, “METHOD OF INHIBITING ADENOSINE TRIPHOSPHATE SECRETION, METHOD OF INHIBITING HEPATIC STELLATE CELL ACTIVATION, METHOD OF DEACTIVATING HEPATIC STELLATE CELL, METHOD OF TREATING HEPATIC FIBROSIS, METHOD OF TREATING NON-ALCOHOLIC STEATOHEPATITIS, AND METHOD OF TREATING PSORIASIS” (Kurume University, priority 2023, published 2026)

How the values were obtained:
LX-2 cells = experiment: ATP secretion from LX-2 cells; format: cell-based, human; conditions: 10 μM clodronate
Method: Cells of the immortalized human hepatic stellate cell line LX-2 (manufactured by Merck) was cultured in Dulbecco's modified Eagle's medium (DMEM, 4500 mg/l Glucose, D5796, manufactured by Sigma-Aldrich) supplemented with inactivated 2% fetal bovine serum (FBS), 10 IU/ml penicillin, and 10 IU/ml streptomycin in a T25 or T75 flask at 37° C. in 5% CO2.
LX-2 cells (2×10^6 cells per well) were seeded in a collagen-coated 6-well culture dish containing Dulbecco's modified Eagle's medium (manufactured by Sigma-Aldrich) supplemented with 10 IU/ml penicillin, […] 2% fetal bovine serum, and cultured in 5% CO2 at 37° C. After 3 days, the LX-2 cells were washed twice and preincubated in Krebs-Ringer buffer (10 mM HEPES-Tris, pH 7.4, 128 mM NaCl, 1.9 mM KCl, 1.2 mM KH2PO4, 1.3 mM MgSO4, 26 mM NaHCO3, 2.4 mM CaCl2, 10 mM glucose, 0.2% (w/v) bovine serum albumin) with or without 10 μM clodronate. The LX-2 cells were then stimulated with Krebs-Ringer buffer supplemented with ionomycin (manufactured by Cayman) regardless of whether clodronate was present or not. For the stimulation, 1 mM EGTA (manufactured by Dojindo) or 10 μM serotonin (5-HT, manufactured by Sigma-Aldrich) was used. The ATP concentration in the culture supernatant was measured in the same manner as in Example 6.
For an siRNA experiment, a TriFECTa (trademark) RNAi Kit (manufactured by Integrated DNA Technologies) was used. A scramble RNA (scRNA) as a control siRNA, or a VNUT-specific siRNA, was incubated with Lipofectamine 3000 reagent (manufactured by Invitrogen) in OptiMEM reduced-serum medium (#31985070, manufactured by Gibco) at room temperature for 15 minutes, and then added directly to the cultured cells. The LX-2 cells as the transfection mixture were plated, and then cultured for 48 hours. The base sequences of VNUT siRNA forward and VNUT siRNA reverse, used for the above kit, are shown in SEQ ID NOs: 1 and 2, respectively. A positive control for an endogenous gene (#51-01-08-02) and a negative control (#51-01-14-03) were used.

VNUT = experiment: Inhibitory effect on VNUT (data not shown)
V-ATPase = experiment: Inhibitory effect on V-ATPase (data not shown)
α-SMA in mouse liver = experiment: α-SMA Western blotting of liver tissue of TAA-treated mice; format: in vivo; conditions: imeglimin 200 mg/kg p.o. (FIG. 31)
Method: In accordance with Example 15, immunostaining of α-SMA in liver sections and observation by fluorescence microscopy were performed for the normal control group, the TAA group, and the TAA+IMG group, and for a TAA+Clo group, which was treated in the same manner as the TAA+IMG group except that clodronate, instead of imeglimin, was administered at 30 mg/kg by blending it in the drinking water from 1 week after the start of TAA administration.
Further, α-SMA was compared by Western blotting. Fresh mouse liver was homogenized in Western lysis buffer (20 mM Tris-HCl, pH 7.6, 150 mM NaCl, 2 mM EDTA, 0.5% NP-40) supplemented with protease and phosphatase inhibitor tablets (manufactured by Roche Applied Science), followed by centrifugation at 10,000×g at 4° C. for 5 minutes to obtain a supernatant. Protein content in the supernatant was quantified using a BCA Protein Assay Kit (manufactured by ThermoFisher Scientific). […] Thereafter, protein bands were visualized using an […] (ECL) Western blotting detection system (manufactured by GE Healthcare) and detected with an image analyzer LAS-4000 mini (manufactured by Fujifilm).

mouse auricle [1] = experiment: Imiquimod-induced psoriasis model, comparison with an anti-TNFα antibody (Example 19); format: in vivo
Method: The dorsal hair of mice was shaved and depilated (Day 0). To each of the left auricle and the depilated back of each mouse, 62.5 mg of 5% imiquimod cream (Beselna Cream 5%) was applied once daily a total of seven times (Days 1 to 7) in accordance with Example 18, to induce imiquimod-induced psoriasis (IMQ group). In the IMQ+IMG group, mice received oral administration of imeglimin (40 mg/kg) once daily (Day 1 to 7) after the imiquimod application. […] Thickness of the auricle was measured, and the degrees of erythema, desquamation, and infiltration in the affected area were rated on Days 1, 3, 5, 7, and 8 according to the PASI scoring of the DermNET Dermatology Resource (none: 0, mild: 1, moderate: 2, severe: 3, and very severe: 4). The resulting values were used to calculate the PASI score.
Further, for an auricle excised on Day 8, immunohistochemical staining was performed in the same manner as in Example 18, and auricular sections were imaged using a fluorescence microscope (BZ-X710; manufactured by Keyence Corporation).

mouse auricle [2] = experiment: Imiquimod-induced psoriasis relapse model (Example 20); format: in vivo; conditions: 40 mg/kg oral
Method: To the left auricle of each mouse, 62.5 mg of 5% imiquimod cream (Beselna Cream 5%) was applied once daily a total of seven times (Days 1 to 7) in accordance with Example 19 to induce imiquimod-induced psoriasis. Thereafter, the imiquimod treatment was interrupted, and imeglimin (40 mg/kg) was orally administered on alternate days for 2 weeks (Day 8 to 22) (IMG). Mice without administration of imeglimin were designated IMQ. On Day 23, the imiquimod treatment was resumed, and 62.5 mg of 5% imiquimod cream (Beselna Cream 5%) was applied once daily a total of […]. In parallel, imeglimin (40 mg/kg) was orally administered daily to IMG.

[3] = cited from earlier work

Compound	5-HT-promoted ATP secretion (LX-2 cells; 10 μM 5-HT, N=6 (FIG. 25))	ATP exocytosis (LX-2 cells; ionomycin, N=6 (FIG. 24))	inhibitory effect on VNUT (VNUT)	inhibitory effect on V-ATPase (V-ATPase)	TAA-induced increase in α-SMA (Western blotting) (α-SMA in mouse liver)	inhibitory effects on psoriatic symptoms by TMG1 immunohistochemical images (mouse auricle [1]; Day 8 (FIG. 42))	erythema (excepted from the symptoms reduced) (mouse auricle [1]; imeglimin 40 mg/kg oral daily or infliximab 100 μg/mouse i.v. Days 1, 3, 5, N=5 (FIG. 38))	typical psoriatic symptoms induced by imiquimod, except erythema (thickness, desquamation, infiltration, PASI score) (mouse auricle [1]; imeglimin 40 mg/kg oral daily or infliximab 100 μg/mouse i.v. Days 1, 3, 5, N=5 (FIGS. 37-41))	effect of imeglimin compared with infliximab (mouse auricle [1]; imeglimin 40 mg/kg oral vs infliximab 100 μg/mouse i.v.)	relapse-preventing effect on psoriasis (mouse auricle [2])	psoriatic symptoms after resumed imiquimod treatment (mouse auricle [2]; alternate days Day 8 to 22, then daily from Day 23 (FIG. 43))	concentration ([3]; 1 g of imeglimin hydrochloride daily for one week, 10080 min, read-out: blood imeglimin concentration) [µM]	transfer into the body ([3]; imeglimin)
O=P(O)(O)C(Cl)(Cl)P(=O)(O)O [clodronate]	strongly inhibited	inhibited	–	–	–	–	–	–	–	–	–	–	–
C[C@@H]1N=C(N)NC(N(C)C)=N1 [imeglimin]	–	–	neither imeglimin nor metformin exhibited a strong inhibitory effect	neither imeglimin nor metformin exhibited a strong inhibitory effect	markedly suppressed	supported by the immunohistochemical images of TMG1	except erythema	reduced	almost equivalent, or imeglimin was more effective	relapse-preventing effect on psoriasis	markedly reduced compared to IMQ	9	extremely low transfer into the body
